Laboratory results from patent publication US7329522B2, “Polyphosphate:AMP phosphotransferase” (Yamasa Corporation, priority 2002, dated 2008).

Experiments:
[1] = molecular target: T1, PAP (polyphosphate:AMP phosphotransferase) (Acinetobacter johnsonii, UniProt Q83XD3); experiment: Synthesis of NDP from NMP with PAP and polyphosphate, HPLC analysis; assay type: biochemical; details: 10 mM NMP, polyphosphate 30 mM, PAP 16 units/ml, 37° C., 30 minutes
T1 construct: the PAP gene codes for the polypeptide (molecular weight: 55.8 kd) comprising 475 amino acids; made in house; host or cells: E. coli JM109 carrying plasmid pPAP2

[2] = molecular target: T1, PAP (polyphosphate:AMP phosphotransferase); experiment: Substrate specificity of PAP: NDP or dNDP produced from NMP or dNMP, measured by HPLC; assay type: biochemical; details: relative to phosphorylation of AMP = 100%; 5 mM NMP or dNMP, polyphosphate 10 mM, 100 mM MgCl2, pH 8.0, 37° C., 10 minutes
Procedure: To 50 mM Tris HCl buffer solution (pH 8.0) containing 100 mM MgCl2, polyphosphate (10 mM calculated in terms of inorganic phosphate), and 5 mM of various NMP or dNMP was added PAP at various concentration, and the solution was incubate at 37° C. for 10 minutes. The reaction was terminated by heat treatment at 100° C. for 1 minute, and the solution after the reaction was subjected to HPLC to measure the amount of the NDP or the dNDP produced. The specific activity of each NMP or dNMP is shown in Table 1 as a relative value in relation to the specific activity of the PAP in the phosphorylation of the AMP, which is assumed 100%.

[3] = system: PAP from Acinetobacter johnsonii; details: PAP obtained from Acinetobacter johnsonii, reported as AMP-specific; cited from earlier work
[4] = Adenylate kinase activity measurement (ADP from AMP and ATP, HPLC); assay type: biochemical; details: cell extract; 1 unit = 2 μmole ADP at 37° C. in 1 minute
Procedure: The unit of the adenylate kinase activity is the one measured and calculated by the procedure as described below. Sample enzyme is added the 50 mM Tris HCl buffer solution (pH 7.8) containing 10 mM magnesium chloride, 10 mM AMP, and 10 mM ATP, and the solution is incubated at 37° C. to promote the reaction, and the reaction is terminated by a 1 minute heating at 100° C. Amount of the ADP in the reaction solution is measured by using HPLC, and the activity of producing 2 μmole of ADP at 37° C. in 1 minute is designated 1 unit.
E. coli adenylate kinase was prepared by the procedure described in the document (Proc. Natl. Acad. Sci. USA, 97, 14168-14171 (2000)). However, the cell extract produced by ultrasonication was used for the enzyme solution, and the specific activity of the adenylate kinase in the enzyme solution was 12.5 units/mg protein.

[5] = Galactokinase activity measurement (galactose-1-phosphate produced, sugar analyzer); assay type: biochemical; details: partially purified; 1 unit = 1 μmole galactose-1-phosphate at 37° C. in 1 minute
Procedure: E. coli strain JM109 having the plasmid pDR540 containing E. coli galactokinase gene (Gene, 20, 231(1982), obtained from Pharmacia) was inoculated in 2xYT medium containing 100 μg/ml ampicillin, and the E. coli was cultivated at 37° C. with shaking. When the cell density reached 4×10^8/ml, IPTG was added to the culture medium to a final concentration of 1 mM, and the incubation was continued at 30° C. for another 5 hours. After completion of the cultivation, the cells were collected by centrifugation and suspended in 30 ml buffer solution (50 mM Tris HCl (pH 7.8), 1 mM EDTA). The cells were lyzed by ultrasonication, and bacterial residue was removed by further centrifugation. The solution collected was subjected to ion exchange chromatography using DEAE Toyopearl 650M (Toso) (eluent: 50 mM Tris HCl (pH 7.8), concentration gradient of 0 to 0.5M NaCl) for fractionation and partial purification of the galactokinase. The thus recovered fraction was used for the enzyme solution of galactokinase. […]
The unit of the glactokinase activity was the one measured and calculated by the procedure as described below. […] Amount of the galactose-1-phosphate in the reaction solution was measured by using a sugar analyzer (Dionex), and the activity of producing 1 μmole of galactose-1-phosphate at 37° C. in 1 minute was designated 1 unit.

[6] = Thermal stability of PAP (residual activity); assay type: physicochemical; details: 10 minutes, pH 8.0, in the presence of the polyphosphate
Procedure: PAP was incubated for 10 minutes in 50 mM Tris HCl buffer solution (pH 8.0) containing 100 mM magnesium chloride in the presence or absence of polyphosphate (10 mM calculated in terms of inorganic phosphate) in the bath at various temperatures to measure the residual activity by the procedure as described above.

[7] = Optimal pH of PAP; assay type: biochemical; details: 37° C., 10 minutes, 5 mM AMP, polyphosphate 10 mM, 100 mM magnesium chloride
Procedure: The reaction was allowed to proceed in either 50 mM maleate or 50 mM Tris HCl buffer solution of various pH at 37° C. for 10 minutes in the presence of 100 mM magnesium chloride, polyphosphate (10 mM calculated in terms of inorganic phosphate), and 5 mM AMP to measure the amount of the ADP produced by HPLC.

[8] = pH stability of PAP (residual activity); assay type: physicochemical; details: pH in the range of 7 to 9; activity at pH 8 = 100%; 37° C., 10 minutes, 100 mM magnesium chloride
Procedure: PAP was incubated in either 50 mM maleate or 50 mM Tris HCl buffer solution of various pH at 37° C. for 10 minutes in the presence of 100 mM magnesium chloride to measure the residual activity. The residual activity was measured by allowing the reaction to take place at 37° C. for 10 minutes in the presence of 50 mM Tris buffer solution (pH 8.0), 100 mM magnesium chloride, 5 mM AMP, and polyphosphate (10 mM calculated in terms of inorganic phosphate), and measuring the resulting ADP by HPLC.

[9] = PAP activity measurement (ADP produced from AMP and polyphosphate, HPLC); assay type: biochemical; details: partially purified by DEAE TOYOPEARL 650M; 1 unit = 1 μmole ADP at 37° C. in 1 minute
Procedure: The “unit” used herein is the unit measured under the following conditions, and 1 unit corresponds to the activity of producing 1 μmole of ADP at 37° C. in 1 minute.
Sample enzyme is added to 50 mM Tris HCl buffer solution (pH 7.8) containing 20 mM magnesium chloride, 10 mM AMP, and polyphosphate (30 mM calculated in terms of inorganic phosphate) and the reaction is allowed to proceed by incubating the temperature at 37° C., and the reaction is thereafter terminated by a heat treatment at 100° C. for 1 minute, and amount of ADP in the reaction solution is measured by high performance liquid chromatography (HPLC).
It is to be noted that this productivity corresponds to about 150 times the productivity of the Acinetobacter Johnsonii. PAP was partially purified by fractionating the extract by ion exchange chromatography using DEAE TOYOPEARL 650M (TOSO) (eluent: 50 mM Tris HCl (pH 7.8), concentration gradient of 0 to 0.5M NaCl), and the collected fraction was used for the enzyme sample. The specific activity of the PAP in the collected fraction was 80.5 units/mg protein.

Nc1ncnc2c1ncn2[C@@H]1O[C@H](COP(=O)(O)O)[C@@H](O)[C@H]1O [AMP, adenosine 5′-monophosphate]
NDP generated [1]: 6.76 mM ADP | Specific activity (relative value) [2]: 100%

Nc1ccn([C@@H]2O[C@H](COP(=O)(O)O)[C@@H](O)[C@H]2O)c(=O)n1 [CMP]
NDP generated [1]: 0.98 mM CDP | Specific activity (relative value) [2]: 0.09% | phosphate-transfer by conventional PAP [3]: no phosphotransfer at all

Nc1nc2c(ncn2[C@@H]2O[C@H](COP(=O)(O)O)[C@@H](O)[C@H]2O)c(=O)[nH]1 [GMP]
NDP generated [1]: 7.16 mM GDP | Specific activity (relative value) [2]: 10% | phosphate-transfer by conventional PAP [3]: some phosphate-transfer

Cc1cn([C@H]2C[C@H](O)[C@@H](COP(=O)(O)O)O2)c(=O)[nH]c1=O [TMP]
Specific activity (relative value) [2]: 0.012%

O=c1ccn([C@@H]2O[C@H](COP(=O)(O)O)[C@@H](O)[C@H]2O)c(=O)[nH]1 [UMP]
NDP generated [1]: 0.85 mM UDP | Specific activity (relative value) [2]: 0.13% | phosphate-transfer by conventional PAP [3]: no phosphotransfer at all

Nc1ncnc2c1ncn2[C@H]1C[C@H](O)[C@@H](COP(=O)(O)O)O1 [dAMP]
Specific activity (relative value) [2]: 18%

Nc1ccn([C@H]2C[C@H](O)[C@@H](COP(=O)(O)O)O2)c(=O)n1 [dCMP]
Specific activity (relative value) [2]: 0.008%

Nc1nc2c(ncn2[C@H]2C[C@H](O)[C@@H](COP(=O)(O)O)O2)c(=O)[nH]1 [dGMP]
Specific activity (relative value) [2]: 2.6%

adenylate kinase: E. coli adenylate kinase, cell extract used as enzyme solution
specific activity of the adenylate kinase in the enzyme solution [4]: 12.5 units/mg protein

B1: galactokinase: E. coli galactokinase, partially purified enzyme solution (protein, UniProt P0A6T3 2-382, looked up)
Galactokinase: SLKEKTQSLFANAFGYPATHTIQAPGRVNLIGEHTDYNDGFVLPCAIDYQTVISCAPRDDRKVRVMAADYENQLDEFSLDAPIVAHENYQWANYVRGVVKHLQLRNNSFGGVDMVISGNVPQGAGLSSSASLEVAVGTVLQQLYHLPLDGAQIALNGQEAENQFVGCNCGIMDQLISALGKKDHALLIDCRSLGTKAVSMPKGVAVVIINSNFKRTLVGSEYNTRREQCETGARFFQQPALRDVTIEEFNAVAHELDPIVAKRVRHILTENARTVEAASALEQGDLKRMGELMAESHASMRDDFEITVPQIDTLVEIVKAVIGDKGGVRMTGGGFGGCIVALIPEELVPAVQQAVAEQYEAKTGIKETFYVCKPSQGAGQC
specific activity of the galactokinase in the enzyme solution [5]: 6.5 units/mg protein

B2: polyphosphate:AMP phosphotransferase (protein, listed as Acinetobacter jobnsonii)
chain: MDTETIASAVLNEEQLSLDLIEAQYALMNTRDQSNAKSLVILVSGIELAGKGEAVKQLREWVDPRFLYVKADPPHLFNLKQPFWQPYTRFVPAEGQIMVWFGNWYGDLLATAMHASKPLDDTLFDEYVSNMRAFEQDLKNNNVDVLKVWFDLSWKSLQKRLDDMDPSEVHWHKLHGLDWRNKKQYDTLQKLRTRFTDDWQIIDGEDEDLRNHNFAQAILTALRHCPEHEKKAALKWQQAPIPDILTQFEVPQAEDANYKSELKKLTKQVADAMRCDDRKVVIAFEGMDAAGKGGAIKRIVKKLDPREYEIHTIAAPEKYELRRPYLWRFWSKLQSDDITIFDRTWYGRVLVERVEGFATEVEWQRAYAEINRFEKNLSSSQTVLIKFWLAIDKDEQAARFKARESTPHKRFKITEEDWRNRDKWDDYLKAAADMFAHTDTSYAPWYIISTNDKQQARIEVLRAILKQLKADRDTD
thermal stability: stable up to [6]: approximately 50 °C | optimal pH [7]: approximately 8.5 | enzymatic activity (residual) after incubation at various pH [8]: ≥ 80% | specific activity of the PAP in the collected fraction [9]: 80.5 units/mg protein
